In patent US20150031056A1, “DEVELOPMENT OF SPECIFIC IMMUNOASSAY CRITICAL REAGENTS FOR PHARMACOKINETIC ASSESSMENTS OF PEPTIDE POLYMERS IN PRECLINICAL AND CLINICAL MATRICES” (priority 2011, published 2015):
Values joined by “and” are separate entries in the source; they are usually repeats but may differ in a detail not shown here. Equal values may be shown once.

Assay: Pilot PK study in Sprague Dawley rats (serum Copaxone by ELISA)
Type: in vivo
Settings: Copaxone 20 mg/kg B.wt
Protocol: A series of serum samples, each containing Copaxone spiked at known concentration and forming a set of calibrator standards to generate a calibration curve to quantify Copaxone in the serum samples of the given species was made in the serum with Copaxone at levels […], 30000 ng/ml, 4000 ng/ml, 2000 ng/ml, 1000 ng/ml, 500 ng/ml, 250 ng/ml, 125 ng/ml, 62.5 ng/ml, 31.3 ng/ml, 7.8 ng/ml and 3.9 ng/ml in neat serum.
ELISA plate is precoated with Polyclonal Rabbit Anti Copaxone antibodies and the appropriately diluted serum samples constituting the calibrator standards and samples for analysis were incubated for binding to the coated Anti Copaxone antibodies and unbound and poorly bound serum components were separated during washing with PBST (Phosphate buffered saline with 0.1% tween 20).The bound Copaxone was detected using biotin labeled Polyclonal Rabbit Anti Copaxone antibodies and streptavidin Alkaline phosphatase conjugate. Substrate was added to the wells and the blue colored signal obtained at 640 nm for the test samples is compared with the calibration curve prepared from concentration-response relationship of the calibrators to determine the unknown concentration of Copaxone in the serum samples.
Three male Sprague Dawley rats were dosed with Copaxone at 20 mg per kg body weight with a dosing volume of […] at the dose concentration of 20mg/ml per day. The dosage was selected based on minimum feasible dose (based on dose volume of 1 ml per kg) for the given strength of 20 mg/ml. Each animal was weighed and dosed with Copaxone @ 20 mg/kg B.wt. Blood samples were collected in 10 μl of Protease inhibitor from each animal at the time point 5 min, 10 min, 15 min, 20 min, 30 min, 45 min, 1, 2, 3, 4, 6, 10 and 24 hours. The blood samples were stored on wet ice for serum separation. The serum was separated and stored at −80° C. till the shipment. The samples till 24 hours were shipped in Dry Ice […].

[1] = Mean of three male Sprague Dawley rats
[2] = individual male Sprague Dawley rat (Rat 1, 2, 3)

AUC0-inf [1]: 25507 ng·min/mL
AUC0-t [1]: 25211.81 ng·min/mL
AUC % Extrap_obs (Should be < 5%) [1]: 1.24%
Cmax [1]: 1824.12 ng/mL
T1/2 [1]: 27.45 min
Tmax [1]: 11.67 min
AUC % Extrap_obs (Should be < 5%) [2]: 0.63% and 1.87% and 1.22%
Tmax [2]: 15 min and 10 min
T1/2 (individual male Sprague Dawley rat (Rat 1, 2, 3), samples 5 min to 24 hours): 31.18 min and 23.39 min and 27.79 min
Substance: Glatiramer acetate [Copaxone]
AUC0-inf [2]: 25654.06 ng·min/mL and 15705.6 ng·min/mL and 35161.34 ng·min/mL
AUC0-t [2]: 25491.53 ng·min/mL and 15411.63 ng·min/mL and 34732.28 ng·min/mL
Cmax [2]: 968.69 ng/mL and 510.79 ng/mL and 3992.88 ng/mL
